Where a name gives a salt, the structure may show the parent alone.
Assays:
[1] = system: A549 NSCLC xenograph model; experiment: In vivo efficacy in the A549 NSCLC xenograft model; parameters: species or system nude mice; conditions: intermittent dosing 60 mg/kg po days 1-3 and 15-17, in combination with taxotere 30 mg/kg iv single dose
Method: The in vivo efficacy of (−)-gossypol acetic acid co-crystals alone or in combination with taxotere (TXT) in the A549 NSCLC xenograph model is shown in FIGS. 2 and 3. About 5 million cells of A549 were inoculated into nude mice, 8 mice per dosing group. In one experiment, (−)-gossypol acetic acid co-crystals were administered at 15 mg/kg, oral dosing (po), daily for 21 days, either alone or in combination with taxotere at 8 mg/kg, iv, once a week for three weeks (FIG. 2). In another experiment, (−)-gossypol acetic acid co-crystals were administered at 60 mg/kg, po, daily for three days per week (day 1-3/week) every two weeks (days 1-3, and then days 15-17), either alone or in combination with taxotere at 30 mg/kg, iv, single dose only, once every three weeks (FIG. 3).

[2] = system: patients with histologically confirmed metastatic prostate cancer; experiment: CS-202 Phase I data from 9 patients (toxicity); format: in vivo, human; conditions: 40-60 mg BID days 1-3 every 21 days with docetaxel 75 mg/m2 and prednisone
[3] = system: patients with metastatic prostate cancer, hormone-refractory; experiment: CS-202 Phase I-II, Cohort A (hormone-refractory patients): PSA and tumor response; format: in vivo, human; conditions: with docetaxel and prednisone
Description: See N. Engl. J. Med. 351:1502-1512 (2004) for further details of TAX 327 clinical study.
(“D”=docetaxel; “P”=prednisone).

[4] = system: men with docetaxel-refractory castration-resistant prostate cancer; experiment: CS-202 Cohort B: AT-101 added to docetaxel/prednisone in docetaxel-refractory CRPC
Method: An open-label non-randomized Phase I-II clinical trial (labeled CS-202) is being carried out on patients with histologically confirmed metastatic prostate cancer. Briefly, patients are divided in into two cohorts: Cohort A-Patients with rising PSA level on hormonal therapy, i.e., hormone-refractory patients, and Cohort B-Patients with PSA or disease progression on docetaxel (taxotere), i.e., docetaxel-refractory patients. All patients were treated with 40-60 mg (−)-gossypol acetic acid co-crystal 40-60 mg BID days 1-3, every 21 days, 75 mg/m2 docetaxel q 21 days and prednisone, daily per label.
Treatment regimen in this study is: oral AT-101 40 mg BID×3 days q 3 weeks, IV taxotere 75 mg/m^2 q 3 weeks, and oral prednisone 5 mg BID daily.
A clinical study of docetaxel and prednisone in combination with AT-101 using a pulse administration schedule in men with docetaxel-refractory castration-resistant prostate cancer (CRPC) is ongoing (see Example 4, cohort B patients). A strict definition of docetaxel refractoriness which requires that the patient have progression as measured by PSA levels, RECIST, or bone scan while receiving docetaxel (D) and prednisone (P) is being used in the study. RECIST criteria are widely-used and well known in the art. The intervention is to continue docetaxel and prednisone treatment and to add AT-101.

[5] = system: patients with advanced cancer; experiment: Pulsatile dose administration of AT-101 b.i.d. times 3 days every other week, clinical efficacy and case summaries; format: in vivo, human
Description: Following pulsatile dose administration of (−)-gossypol to patients with advanced cancer, clinical efficacy (e.g., patients having stable disease for 60 days or more) was monitored. […] The case summaries are as follows:
Patient 1 is a person diagnosed with non-small cell lung cancer (NSCLC) by bronchial biopsy in March 2005. The patient initially received the Carboplatin/paclitaxel with radiation therapy as adjuvant therapy from April to May 2005. Disease progression was diagnosed in September 2005 and treatment with erlotinib was begun in October 2005. The patient had progressive disease in January 2006. The patient started on treatment with AT-101 40 mg b.i.d. times 3 days every other week in March 2006. When the patient started on treatment with AT-101 they had extensive lymph node disease that remained stable on study drug for approximately 939 days (2.6 years). The patient's baseline signs and symptoms included: anemia, fatigue and productive cough. Their medical history includes: history of smoking, COPD, BPH, hypercholesterolemia, hypophosphatemia, RT induced esophagitis.
Patient 2 is a person diagnosed with a neuroendocrine carcinoma by a CT guided biopsy of an abdominal mass in May 2002. The patient was initially treated with interferon alpha from September 2002 to March 2003 but the disease progressed. Subsequently, the patient was treated with an investigational VEGFR2 targeted agent, SUO11248, from August 2003 to March 2004 until progression. The patient next received interferon plus capecitabine from August 2004 to June 2005 until disease progression in July 2005. Next, the patient was treated with […] doxirubicin from July 2005 to January 2006 until disease progression in February 2006. They started on the AT-101 treatment in February 2006 and received AT-101 30 mg b.i.d. times 3 days every other week. At the start of therapy, disease was present in the liver, abdomen, and pelvis and notable for numerous mesenteric masses. These remained stable on study for 18 cycles (534 days). The patient came off study due to increased weight loss and the investigator decision to send the patient for surgery for tumor debulking. The patient's baseline signs and symptoms included tumor pain, fatigue and weight loss. The patient's medical history included: GERD, HTN, congenital pulmonary cysts, anemia, and diarrhea.

[6] = system: men with treatment naïve CRPC; experiment: Single agent AT-101 administration (20-30 mg daily); format: in vivo, human; conditions: single agent AT-101 at 20-30 mg daily
Description: Better compliance with a 3-day dosing regimen, compared to daily for 21 of 28 days, for example, is expected.

Bcl-2 = Bcl-2 (Homo sapiens, UniProt P10415); conditions: U.S. Patent Application No. 2003/0008924; cited from earlier work
Bcl-XL = Bcl-XL (Homo sapiens, UniProt Q07817); conditions: U.S. Patent Application No. 2003/0008924; cited from earlier work
Mcl-1 = Mcl-1 (Homo sapiens, UniProt Q07820); conditions: U.S. Patent Application No. 2003/0008924; cited from earlier work
[7] = system: all-corners with relapsed SCLC; conditions: oral versus i.v. topotecan HCl; cited from earlier work
[8] = 20 patients with measurable disease by RECIST
[9] = AT-101 added to continued docetaxel and prednisone
[10] = first 11 patients of Cohort B, with docetaxel and prednisone
[11] = Patient 1, NSCLC, 40 mg b.i.d. times 3 days every other week
[12] = Patient 2, 30 mg b.i.d. times 3 days every other week

Sequence of Bcl-XL (Q07817 whole entry): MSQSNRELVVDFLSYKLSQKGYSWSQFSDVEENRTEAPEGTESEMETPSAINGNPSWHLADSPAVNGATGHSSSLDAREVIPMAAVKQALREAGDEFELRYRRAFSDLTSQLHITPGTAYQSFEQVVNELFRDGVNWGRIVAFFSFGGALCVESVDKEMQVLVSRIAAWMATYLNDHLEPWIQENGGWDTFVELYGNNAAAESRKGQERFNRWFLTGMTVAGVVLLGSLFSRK
Sequence of Mcl-1 (Q07820 whole entry): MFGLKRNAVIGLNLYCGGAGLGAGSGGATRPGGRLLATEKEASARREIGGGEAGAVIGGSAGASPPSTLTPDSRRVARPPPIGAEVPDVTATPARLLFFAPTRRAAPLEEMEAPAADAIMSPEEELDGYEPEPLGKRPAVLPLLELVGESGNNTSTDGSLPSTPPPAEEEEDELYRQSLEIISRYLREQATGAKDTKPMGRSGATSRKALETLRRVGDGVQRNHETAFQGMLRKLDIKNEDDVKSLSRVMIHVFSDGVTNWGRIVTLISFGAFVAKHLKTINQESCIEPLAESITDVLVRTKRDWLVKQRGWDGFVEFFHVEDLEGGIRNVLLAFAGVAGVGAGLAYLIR
Sequence of Bcl-2 (P10415 whole entry): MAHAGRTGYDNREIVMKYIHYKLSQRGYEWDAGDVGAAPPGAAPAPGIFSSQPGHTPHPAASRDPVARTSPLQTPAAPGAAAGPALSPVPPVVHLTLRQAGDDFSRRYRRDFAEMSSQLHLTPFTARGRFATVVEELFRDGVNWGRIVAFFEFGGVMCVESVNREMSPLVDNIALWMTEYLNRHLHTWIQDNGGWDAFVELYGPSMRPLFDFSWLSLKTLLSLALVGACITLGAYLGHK

Q: With `Cc1cc2c(C(C)C)c(O)c(O)c(C=O)c2c(O)c1-c1c(C)cc2c(C(C)C)c(O)c(O)c(C=O)c2c1O` [AT-101, (−)-gossypol acetic acid co-crystal] as the molecule, how does the Tumor volume [1] read?
A: effectively reduces tumor volume

Q: What about the Docetaxel hematological toxicity [2] of the same molecule?
A: no increase in docetaxel hematological toxicity

Q: What about the Dose-limiting toxicities [2] of the same molecule?
A: no dose-limiting toxicities

Q: What about the Severe gastrointestinal toxicity [2] of the same molecule?
A: no severe gastrointestinal toxicity

Q: And the “PSA response versus time” value ([3]; Cohort A)?
A: PSA reductions occur early in the treatment and are long lasting

Q: What about the PSA response ([3]; first 20 patients of Cohort A) of the same molecule?
A: high rate of PSA response

Q: And the “Patients refractory at the onset of treatment” value ([3]; first 20 patients of Cohort A)?
A: only one patient out of 20 was refractory

Q: And the “Complete response (CR)” value [4, 8]?
A: one complete response (CR)

Q: What about the “PRs (RECIST)” value [4, 8] of the same molecule?
A: 4

Q: And the “Patients with major tumor shrinkage based on radiographic assessments” value ([4]; 20 patients with measurable disease by RECIST criteria at baseline)?
A: 6/20

Q: And the “Patients who have achieved a PSA partial response (PR) (50% or greater reduction)” value [4, 9]?
A: 7/35

Q: What about the “Patients with some PSA reduction” value [4, 9] of the same molecule?
A: 20/35

Q: And the PSA response kinetics ([4]; added to a taxotere/prednisone regimen, patients of Cohort B)?
A: abrupt reversal of the PSA response (from rising to falling)

Q: And the “Reduction in tumor volume” value ([4]; another single patient with measurable disease)?
A: 29%

Q: And the “Patients having a 30+% decline in PSA response” value [4, 10]?
A: 4 patients

Q: And the “Patients having a 50+% decline in PSA response” value [4, 10]?
A: 2 patients

Q: What about the “Patients with the desired PSA response” value [4, 10] of the same molecule?
A: 6 patients

Q: What about the “Peak and AUC concentrations” value ([4]; human, in vivo) of the same molecule?
A: higher peak and AUC concentrations

Q: And the “Patients on-study for 4 months or longer” value ([4]; of 35 patients)?
A: Eight out of the 35 patients

Q: And the “Patients on-study for 6 months or longer” value ([4]; of 35 patients)?
A: 3 patients

Q: What about the “D/P refractory patients who have had a PSA PR” value ([4]; patients meeting the strict definition of refractoriness) of the same molecule?
A: 4/32

Q: What about the Tolerability ([4]; pulsatile dose administration) of the same molecule?
A: well tolerated

Q: What about the D/P chemoresistance ([4]; pulsatile dose administration, some patients with CRPC) of the same molecule?
A: overcomes D/P chemoresistance in some patients with CRPC

Q: And the “Responses, time-to-event plot” value ([4]; taxotere-refractory patients (37 eligible; 21 with measurable disease), AT-101 40 mg BID×3 days q 3 weeks added to taxotere/prednisone)?
A: multiple durable responses

Q: What about the RECIST responses ([4]; taxotere-refractory patients, AT-101 40 mg BID×3 days q 3 weeks added to taxotere/prednisone) of the same molecule?
A: RECIST partial responses are observed

Q: What about the On-treatment toxicities [5, 11] of the same molecule?
A: grade 2 peripheral neuropathy

Q: What about the “Time disease remained stable on study drug” value [5, 11] of the same molecule?
A: approximately 939 days

Q: And the “On treatment grade 1 toxicities” value [5, 12]?
A: general body aches, nausea, flatulence, headache, fatigue, hypomagnesemia, vomiting, hypokalemia and diarrhea

Q: What about the “On treatment grade 2 toxicities” value [5, 12] of the same molecule?
A: weight loss, nausea, vomiting

Q: And the “Time disease remained stable on study” value ([5]; Patient 2, neuroendocrine carcinoma, 30 mg b.i.d. times 3 days every other week, 18 cycles)?
A: 534 days

Q: And the “On treatment grade 3 toxicity” value ([5]; Patient 2, considered serious, determined to be unrelated to AT-101 treatment)?
A: small bowel obstruction

Q: And the “Patients with clinical benefit (prolonged progression free period of more than 1 year)” value ([5]; among 37 patients, b.i.d. times 3 days every other week)?
A: two patients had clinical benefit

Q: And the “RECIST SD (stable disease)” value [6]?
A: no RECIST SD (stable disease)

Q: What about the “PSA PRs” value ([6]; compared with pulsatile dosing with D/P) of the same molecule?
A: fewer PSA PRs

Q: What does the source list for `Cc1cc2c(C(C)C)c(O)c(O)c(C=O)c2c(O)c1-c1c(C)cc2c(C(C)C)c(O)c(O)c(C=O)c2c1O` [Gossypol, gossypol]?
A: Binding to Bcl-2 at the BH3 binding groove (Bcl-2): shown to bind; Binding to Bcl-XL at the BH3 binding groove (Bcl-XL): shown to bind; Binding to Mcl-1 at the BH3 binding groove (Mcl-1): shown to bind

Q: For `CC[C@@]1(O)C(=O)OCc2c1cc1n(c2=O)Cc2cc3c(CN(C)C)c(O)ccc3nc2-1` [topotecan HCl, (S)-10-[(dimethylamino)methyl]-4-ethyl-4,9-dihydroxy-1H-pyrano[3′,4′:6,7] indolizino [1,2-b] quinoline-3,14-(4H,12H)-dione monohydrochloride], which “Median progression free survival (PFS)” value [7] is on record?
A: 13.1 weeks

Q: And the ORR [7]?
A: 44%

Reference: patent US20100189683A1, “Pulsatile Dosing of Gossypol for Treatment of Disease” (Ascenta Therapeutics, Inc., priority 2008, published 2010)
